From ChEMBL document CHEMBL1201862, “PubChem BioAssay data set” (2004)
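Dose response: 5 concentrations. Exposure: 48 h. Format: 96-well plates. Endpoint: linear interpolation; highest concentration if not reached. GI50 is the concentration that inhibits growth by half.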 Calls of active or inactive are those of the source. No stated cut-off is given here; in the data, active = GI50 up to about 1.1 µM and inactive = higher.

Legend:
Assay in all cases: NCI anticancer screen, dose series, 48 h
EKVX = system: EKVX
SW-620 = system: SW-620
NCI-H460 = system: NCI-H460
U-251 = system: U-251
IGROV-1 = system: IGROV-1
OVCAR-4 = system: OVCAR-4
HL-60 = system: HL-60
A549 = system: A549
SK-MEL-28 = system: SK-MEL-28
SF-539 = system: SF-539
K562 = system: K562
SNB-19 = system: SNB-19
MOLT-4 = system: MOLT-4
NCI-H23 = system: NCI-H23
SN12C = system: SN12C
KM12 = system: KM12
SNB-75 = system: SNB-75
UO-31 = system: UO-31
SF-295 = system: SF-295
UACC-257 = system: UACC-257

Measured: GI50

CCCCCCCCCCCCCCCCCc1cc(Cl)nc(Cl)n1
inactive: EKVX > 100 µM | SW-620 > 100 µM | NCI-H460 > 100 µM | U-251 > 100 µM | IGROV-1 > 100 µM | OVCAR-4 > 100 µM | HL-60 50.8 µM | A549 > 100 µM | SK-MEL-28 > 100 µM | SF-539 > 100 µM | K562 > 100 µM | SNB-19 > 100 µM | MOLT-4 > 100 µM | NCI-H23 > 100 µM | SN12C > 100 µM | KM12 > 100 µM | SNB-75 > 100 µM | UO-31 > 100 µM | SF-295 > 100 µM | UACC-257 > 100 µM

COc1cc(O)c2c(c1)C(=O)c1cc(C)cc(O)c1C2=O [PHYSCION]
inactive: EKVX > 100 µM | SW-620 > 100 µM | NCI-H460 > 100 µM | U-251 > 100 µM | IGROV-1 > 100 µM | OVCAR-4 > 100 µM | HL-60 > 100 µM | A549 > 100 µM | SK-MEL-28 > 100 µM | SF-539 > 100 µM | K562 > 100 µM | SNB-19 > 100 µM | MOLT-4 > 100 µM | NCI-H23 > 100 µM | SN12C > 100 µM | KM12 > 100 µM | SNB-75 93.8 µM | UO-31 > 100 µM | SF-295 > 100 µM | UACC-257 > 100 µM

O=C1N/C(=N/N=C/c2c[nH]c3ccccc23)N/C1=C\c1cccs1
inactive: EKVX > 100 µM | SW-620 > 100 µM | NCI-H460 > 100 µM | U-251 36.2 µM | IGROV-1 > 100 µM | OVCAR-4 > 100 µM | HL-60 19.4 µM | A549 76.6 µM | SK-MEL-28 > 100 µM | SF-539 > 100 µM | K562 > 100 µM | SNB-19 14.8 µM | MOLT-4 > 100 µM | NCI-H23 > 100 µM | SN12C > 100 µM | KM12 55.8 µM | SNB-75 > 100 µM | UO-31 > 100 µM | SF-295 > 100 µM | UACC-257 77.3 µM

CC1(C)O[C@@H](C[C@]2(C#N)C[C@H](CCl)OC(C)(C)O2)C[C@@H](C#N)O1
inactive: EKVX > 100 µM | SW-620 > 100 µM | NCI-H460 > 100 µM | U-251 > 100 µM | IGROV-1 > 100 µM | OVCAR-4 > 100 µM | HL-60 > 100 µM | A549 > 100 µM | SK-MEL-28 > 100 µM | SF-539 > 100 µM | K562 > 100 µM | SNB-19 > 100 µM | MOLT-4 > 100 µM | NCI-H23 > 100 µM | SN12C > 100 µM | KM12 > 100 µM | SNB-75 > 100 µM | UO-31 > 100 µM | SF-295 > 100 µM | UACC-257 > 100 µM

O=C(Nc1cccc(O)c1)C(=O)C(C(=O)c1ccccc1F)C1OC(=O)c2ccccc21 (stereo not given)
inactive: EKVX 34 µM | SW-620 35.7 µM | NCI-H460 29.4 µM | U-251 11.6 µM | IGROV-1 38.7 µM | OVCAR-4 23.9 µM | HL-60 28.7 µM | A549 29.4 µM | SK-MEL-28 31 µM | SF-539 15.2 µM | K562 37.3 µM | SNB-19 19.9 µM | MOLT-4 28.6 µM | NCI-H23 27 µM | SN12C 19.4 µM | KM12 18.4 µM | SNB-75 17.5 µM | UO-31 32.1 µM | SF-295 52.6 µM | UACC-257 84.5 µM

CN1CCN(P2(=S)Oc3ccc4ccccc4c3-c3c(ccc4ccccc34)O2)CC1
inactive: EKVX 29.6 µM | SW-620 39 µM | NCI-H460 19.5 µM | U-251 32.7 µM | IGROV-1 53.1 µM | OVCAR-4 36.6 µM | HL-60 13.1 µM | A549 40.3 µM | SK-MEL-28 41.1 µM | SF-539 21.5 µM | K562 20.7 µM | SNB-19 39.6 µM | MOLT-4 15.1 µM | NCI-H23 37.5 µM | SN12C 33.5 µM | KM12 21.6 µM | SNB-75 37.5 µM | UO-31 18.4 µM | SF-295 34.9 µM | UACC-257 29.7 µM

c1ccc(CCn2cncn2)cc1
inactive: EKVX > 100 µM | SW-620 > 100 µM | NCI-H460 > 100 µM | U-251 > 100 µM | IGROV-1 > 100 µM | OVCAR-4 > 100 µM | HL-60 > 100 µM | A549 > 100 µM | SK-MEL-28 > 100 µM | SF-539 > 100 µM | K562 > 100 µM | SNB-19 > 100 µM | MOLT-4 > 100 µM | NCI-H23 > 100 µM | SN12C > 100 µM | KM12 > 100 µM | SNB-75 > 100 µM | UO-31 > 100 µM | SF-295 > 100 µM | UACC-257 > 100 µM
